Measured values as given in ChEMBL document CHEMBL4616656, “Diisonitrile-Mediated Reactive Oxygen Species Accumulation Leads to Bacterial Growth Inhibition” (J Nat Prod, 2020).
Active and inactive are the calls of the source. No cut-off for these calls is given here.

Columns and labels:
[1] = system: Bacillus subtilis; experiment: microbe, parasite or virus in culture; settings: subsp. subtilis str. 168, 12 h
Description: Antibacterial activity against Bacillus subtilis 168 after 12 hrs

[2] = system: Bacillus subtilis subsp. subtilis str. 168; experiment: Copper chelating activity in Bacillus subtilis 168 assessed as reduction in cytochrome c oxidase activity by measuring decrease in intracellular ATP level at 10 uM incubated for 15 to 90 mins by bioluminescence method relative to control; type: cell-based; design: scale not given: the % may be the effect or the level left
[3] = system: Bacillus subtilis; experiment: Antibacterial activity against Bacillus subtilis 168 assessed as inhibition rate at 100 uM after 12 hrs relative to control; type: functional; settings: subsp. subtilis str. 168, 12 h
[4] = system: Bacillus subtilis; experiment: Antibacterial activity against Bacillus subtilis 168 in presence of CuCl2 by paper disk assay; type: functional, organism-based; settings: subsp. subtilis str. 168
[5] = system: Bacillus subtilis; experiment: Antibacterial activity against Bacillus subtilis 168 in presence of Fe2+ by paper disk assay; type: functional, organism-based; settings: subsp. subtilis str. 168
[6] = system: Bacillus subtilis; experiment: Antibacterial activity against Bacillus subtilis 168 in presence of Fe3+ by paper disk assay; type: functional, organism-based; settings: subsp. subtilis str. 168
[7] = system: Bacillus subtilis subsp. subtilis str. 168; experiment: Copper chelating activity in Bacillus subtilis 168 assessed as reduction in cellular copper content at 100 uM incubated for 1 hr by ICP-MS analysis relative to control; design: scale not given: the % may be the effect or the level left
[8] = system: Bacillus subtilis subsp. subtilis str. 168; experiment: Copper chelating activity in Bacillus subtilis 168 assessed as reduction in cytochrome c oxidase activity by measuring increase in ROS level at 10 uM measured over 40 mins by H2DCFDA staining based fluorescence method relative to control
[9] = system: Bacillus subtilis; experiment: Antibacterial activity against Bacillus subtilis 168 at 10 uM after 12 hrs relative to control; type: functional, subsp. subtilis str. 168
[10] = system: Enterococcus faecalis; experiment: Antibacterial activity against Enterococcus faecalis ATCC 29212 at 10 uM after 12 hrs relative to control; type: functional
[11] = system: Staphylococcus aureus; experiment: Antibacterial activity against Staphylococcus aureus ATCC 43300 at 10 uM after 12 hrs relative to control; type: functional
[12] = system: Acinetobacter baumannii; experiment: Antibacterial activity against Acinetobacter baumannii ATCC 19606 at 10 uM after 12 hrs relative to control; type: functional, ATCC 19606 = CIP 70.34 = JCM 6841
[13] = system: Escherichia coli; experiment: Antibacterial activity against Escherichia coli BL21 at 10 uM after 12 hrs relative to control; type: functional
[14] = system: Klebsiella pneumoniae; experiment: Antibacterial activity against Klebsiella pneumoniae CMCC 46117 at 10 uM after 12 hrs relative to control; type: functional
[15] = system: Pseudomonas aeruginosa; experiment: Antibacterial activity against Pseudomonas aeruginosa ATCC 27853 at 10 uM after 12 hrs relative to control; type: functional
[16] = system: Acinetobacter baumannii ATCC 19606 = CIP 70.34 = JCM 6841; experiment: Copper chelating activity in Acinetobacter baumannii ATCC 19606 assessed as increase in ROS level at 10 uM measured over 40 mins by H2DCFDA staining based fluorescence method
[17] = target: Mushroom tyrosinase (Agaricus bisporus, UniProt O42713+Q00024+C7FF04+C7FF05); experiment: Inhibition of mushroom tyrosinase using L-DOPA as substrate preincubated for 10 mins followed by substrate addition and measured after 15 mins by spectrophotometric method
[18] = Bacillus subtilis subsp. subtilis str. 168

Activity [8]	SMILES	Activity [9, 18]	other results
–	COc1cc(Cc2cnc(N)nc2N)cc(OC)c1OC [TRIMETHOPRIM]	–	IC50 [1]: 0.3 µM
–	CC(C#N)CC(=O)NC[C@@H]1CC[C@H](NC(=O)C[C@@H](C)C#N)C(O)O1 (stereo partly specified)	–	Activity [2]: 20%; inhibition at 100 µM [3]: 56 to 60%; Activity [4]: inactive; Activity [5]: Active; Activity [6]: Active; Activity [7]: 24%; fold change (FC) [8]: 9; Activity [9]: 50%; Activity [10]: 20 - 30%; Activity [11]: 20 - 30%; Activity [12]: 57%; Activity [13]: 20 - 30%; Activity [14]: 20 - 30%; Activity [15]: 20 - 30%; Activity [16]: Active; IC50 [17]: 89.6 µM
inactive	C[C@H](CC(=O)N[C@H]1CC[C@@H](CNC(=O)C[C@@H](C)C#N)OC1O)NC=O (stereo partly specified)	inactive	–
inactive	C[C@H](CC(=O)NCCCC[C@@H](CO)NC(=O)C[C@@H](C)C#N)NC=O	inactive	–
inactive	C[C@H](CC(=O)N[C@H](CO)CCCCNC(=O)C[C@@H](C)C#N)NC=O	inactive	–
inactive	C[C@H](CC(=O)NC[C@@H]1CC[C@H](NC(=O)C[C@@H](C)NC=O)C(O)O1)NC=O (stereo partly specified)	inactive	–
inactive	C[C@H](CC(=O)NCCCC[C@@H](CO)NC(=O)C[C@@H](C)NC=O)NC=O	inactive	–
inactive	CC(C)=CCC(=O)NC[C@@H]1CC[C@H](NC(=O)C[C@@H](C)C#N)C(O)O1 (stereo partly specified)	inactive	–
inactive	CC(=O)OC[C@H](CCCCNC(=O)C[C@@H](C)NC=O)NC(=O)C[C@@H](C)NC=O	inactive	–
Active	CC(=O)OC[C@H](CCCCNC(=O)C[C@@H](C)C#N)NC(=O)C[C@@H](C)C#N	Active	IC50 [17]: 89.6 µM
inactive	CC(C)CCC(=O)NC[C@@H]1CC[C@H](NC(=O)C[C@@H](C)C#N)C(O)O1 (stereo partly specified)	inactive	–
Active	C[C@@H](C#N)CC(=O)NCCCC[C@@H](CO)NC(=O)C[C@@H](C)C#N	Active	IC50 [17]: 89.6 µM
inactive	CC(C)CC(=O)NC[C@@H]1CC[C@H](NC(=O)CC(C)C)C(O)O1 (stereo partly specified)	inactive	–
